Measurements as given in patent publication US4122184A, “Benzimidazole insecticides” (priority 1977, dated 1978).
Where “and” joins values, the source holds several entries; their conditions need not be identical. Equal entries are not always repeated.

Legend:
Melon Aphid = Melon Aphid Test; type: in vivo, Aphis gossypii (Hemiptera); conditions: 24 h
From the text: Four blue hubbard squash seeds are planted per container in vermiculite and the containers watered from the bottom. After 6 days, the two weakest plants are cut off and one cotyledon and the primary leaves are removed from each of the two remaining plants. The remaining cotyledon is infested with 100 melon aphids from a stock colony by pinning the cotyledon against an aphid-infested squash cotyledon from the colony and allowing the aphids to transfer. After transfer, the colony leaf is removed. Forty-eight hours later, the infested leaves are sprayed to wetting with formulations containing graded amounts of the insecticide using a DeVilbiss atomizer at 10 psi held at 12-15 inches from the plant. Controls consist of two infested, unsprayed squash plants and two infested plants sprayed to wetting with a formulation containing 100 ppm malathion as a reference standard. The mortality is estimated 24 hours after spraying by observation using a 10 power dissecting microscope. The same rating scale is used as before.

Alfalfa Weevil Larvae [1] = test: Field trial, stomach poison test; type: in vivo
Method in brief: (§1)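 Leaves from infested plants sprayed (10 psi) or dipped in test compound at several concentrations, air-dried, then five or ten insects placed per dish, one or two replicates. Mortality scored 0 to 9 at 24, 48 and 72 h, averaged per concentration.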

Aphids - Apple = test: Field trial, stomach poison test; type: in vivo
Method in brief: as §1

Aphids - Tulip Tree = test: Field trial, stomach poison test; type: in vivo
Method in brief: as §1

Meadow Spittlebug = test: Field trial, stomach poison test; type: in vivo
Method in brief: as §1

[2] = test system: Potato Flea Beetle Adults; test: Field trial, stomach poison test; type: in vivo
Method in brief: as §1

[3] = test system: Striped Cucumber Beetle Adults; test: Field trial, stomach poison test; type: in vivo; parameters: key: mortality rating on a 0 to 9 scale
Method in brief: as §1

Squash Bug Adults = test: Field trial, contact poison test; type: in vivo; parameters: key: 0-9 rating: 0 = 0-10% mortality, 9 = 91-100% mortality
Method in brief: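 Each infested plant sits in a water-filled bottle to prevent wilting, and the test compound is then atomized onto it at 10 psi at various concentrations. Falling dead insects are collected, and mortality is rated 0 (0-10%) to 9 (91-100%) at up to 72 h.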

Alfalfa Weevil Larvae [4] = test: Field trial, topical application; type: in vivo
Procedure: The results are read at 24, 48, and 72 hours when applicable. The rating scale is 0 to 9 where 0 = 0-10 percent and 9 = 91-100 percent mortality.
In a variation of the above test, 1 microliter of a test solution containing a predetermined number of micrograms of benzimidazole was applied directly to larvae or adult insects.
Using the above methods, field trials were carried out against species of 5 orders of insects. The results, which are summarized in the following tables, give the average mortality for the particular insect with a given benzimidazole for each concentration employed. […] These tables contain all results obtained during the summer trials.

Aphids - Sour Gum = test: Field trial, stomach poison test; type: in vivo
Method in brief: as §1

[5] = test system: Southern Corn Rootworm Adults; test: Field trial, stomach poison test; type: in vivo; parameters: key: mortality rating on a 0 to 9 scale
Method in brief: as §1

House Fly = test: Housefly (Contact) Test; type: in vivo, Musca domestica (Diptera); conditions: 24 h
Procedure: Rearing cages containing four-day old adult house flies are chilled at 35°-40° F. for about 1 hour. One hundred flies are transferred from the rearing cage to each test cage using a small scoop. The caged flies are kept for 1-2 hours at 70°-80° F. The cages are sprayed in the same manner as described for the milkweed bug with 5 ml. of the test formulation. Two unsprayed cages are held as controls and two cages are sprayed with a 50 ppm DDT formulation as a reference standard. Mortality counts are made 24 hours after spraying. […] The same rating scale is employed as heretofore.

Boll Weevil = test: Field trial (first summer), topical; type: in vivo, Anthonomus grandis; conditions: .078125 μg/μl
Method in brief: (§2)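 Field trial from the first summer in which 1 µl of test solution holding a set number of micrograms of benzimidazole was applied topically to larvae or adult insects. Mortality at a given route and concentration was scored on a 0–9 scale.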

Picnic Beetle = test: Field trial (first summer), topical; type: in vivo; conditions: .078125 μg/μl
Method in brief: as §2

Confused Flour Beetle = test: Field trial (first summer), topical; type: in vivo
Method in brief: as §2

Compound	mortality rating (Melon Aphid; 250 ppm)	average mortality rating ([3]; 10 ppm)	average mortality rating ([3]; 25 ppm)	average mortality rating ([3]; 50 ppm)	average mortality rating ([3]; 100 ppm)	average mortality rating (Squash Bug Adults; 125 ppm)	average mortality rating (Squash Bug Adults; 250 ppm)	average mortality rating (Squash Bug Adults; 500 ppm)	average mortality rating (Squash Bug Adults; 750 ppm)	mortality rating (Melon Aphid; 25 ppm)	average mortality rating ([5]; 25 ppm)	average mortality rating ([5]; 50 ppm)	average mortality rating ([5]; 100 ppm)	mortality rating (Melon Aphid; 100 ppm)	mortality rating (Melon Aphid; 500 ppm)	mortality rating (Melon Aphid; 1000 ppm)	mortality rating (House Fly; 10 ppm)	mortality rating (House Fly; 25 ppm)	mortality rating (House Fly; 50 ppm)	mortality rating (House Fly; 100 ppm)	further results
CC(C)OC(=O)n1c(C(F)(F)F)nc2c([N+](=O)[O-])cc(C(F)(F)F)cc21 [I, isopropyl 2,6-bis(trifluoromethyl)-4-nitro-1-benzimidazolecarboxylate]	6.5	2	3	6	9 (91-100 percent mortality)	3	1	0 (0-10 percent)	0 (0-10 percent)	–	–	–	–	–	–	–	–	–	–	–	mortality rating (Melon Aphid; 50 ppm): 8.5; average mortality rating (Alfalfa Weevil Larvae [1]; 125 ppm): 8; average mortality rating (Alfalfa Weevil Larvae [1]; 250 ppm): 4; average mortality rating (Alfalfa Weevil Larvae [1]; 500 ppm): 6; average mortality rating (Aphids - Apple; 25 ppm): 1; average mortality rating (Aphids - Apple; 50 ppm): 5; average mortality rating (Aphids - Apple; 100 ppm): 9 (91-100 percent mortality); average mortality rating (Aphids - Tulip Tree; 25 ppm): 5; average mortality rating (Aphids - Tulip Tree; 50 ppm): 5; average mortality rating (Aphids - Tulip Tree; 100 ppm): 5; average mortality rating (Meadow Spittlebug; 10 ppm): 2; average mortality rating (Meadow Spittlebug; 25 ppm): 5; average mortality rating (Meadow Spittlebug; 50 ppm): 3; average mortality rating ([2]; 10 ppm): 6; average mortality rating ([2]; 25 ppm): 8; average mortality rating ([2]; 50 ppm): 8; average mortality rating ([2]; 100 ppm): 9 (91-100 percent mortality); average mortality rating (Alfalfa Weevil Larvae [4]; 0.03 μg/μl): 1; average mortality rating (Alfalfa Weevil Larvae [4]; 0.07 μg/μl): 1; average mortality rating (Alfalfa Weevil Larvae [4]; 0.1 μg/μl): 3
O=[N+]([O-])c1cc(C(F)(F)F)cc2[nH]c(C(F)(F)Cl)nc12 [L, 2-chlorodifluoromethyl-4-nitro-6-trifluoromethylbenzimidazole]	–	–	–	–	–	0 (0-10 percent)	6	6	9 (91-100 percent mortality)	5.5	1	4	6	–	–	–	–	–	–	–	average mortality rating (Aphids - Apple; 25 ppm): 1; average mortality rating (Aphids - Apple; 50 ppm): 1; average mortality rating (Aphids - Apple; 100 ppm): 4; average mortality rating (Aphids - Sour Gum; 25 ppm): 7; average mortality rating (Aphids - Sour Gum; 50 ppm): 7; average mortality rating (Aphids - Sour Gum; 100 ppm): 9 (91-100 percent mortality); average mortality rating (Aphids - Tulip Tree; 25 ppm): 1; average mortality rating (Aphids - Tulip Tree; 50 ppm): 1; average mortality rating (Aphids - Tulip Tree; 100 ppm): 5; average mortality rating (Meadow Spittlebug; 25 ppm): 0 (0-10 percent); average mortality rating (Meadow Spittlebug; 50 ppm): 1; average mortality rating (Meadow Spittlebug; 100 ppm): 5
mixture of N,N-dimethyl-4-nitro-2,6-bis(trifluoromethyl)thio-1-benzimidazolecarboxamide and N,N-dimethyl-7-nitro-2,5-bis(trifluoromethyl)thio-1-benzimidazolecarboxamide [P]	7 (71-80)	5	4	5	9 (91-100 percent mortality)	–	–	–	–	1.5	–	–	–	4 (41-50)	7.5	4.5	4.0	8.5	9 (91-100)	9 (91-100)	mortality rating (Melon Aphid; 10 ppm): 0 (0-10); mortality rating (House Fly; 250 ppm): 9 (91-100); mortality rating (House Fly; 500 ppm): 9 (91-100); mortality rating (House Fly; 1000 ppm): 9 (91-100); insect mortality rating (Boll Weevil): 9 (91-100 percent mortality); insect mortality rating (Picnic Beetle): 9 (91-100 percent mortality)
mixture of benzyl 2,6-bis(trifluoromethyl)-4-nitro-1-benzimidazolecarboxylate and benzyl 2,5-bis(trifluoromethyl)-7-nitro-1-benzimidazolecarboxylate	5 (51-60)	4	4	5	7	–	–	–	–	–	1	2	4	0 (0-10)	9 (91-100)	8 (81-90)	0 (0-10)	0 (0-10)	4 (41-50)	5.5	mortality rating (House Fly; 250 ppm): 9 (91-100); mortality rating (House Fly; 500 ppm): 9 (91-100); mortality rating (House Fly; 1000 ppm): 9 (91-100); average mortality rating (Alfalfa Weevil Larvae [1]; 125 ppm): 3; average mortality rating (Alfalfa Weevil Larvae [1]; 250 ppm): 5; average mortality rating (Alfalfa Weevil Larvae [1]; 500 ppm): 6; average mortality rating (Alfalfa Weevil Larvae [4]; 0.03 μg/μl): 2; average mortality rating (Alfalfa Weevil Larvae [4]; 0.07 μg/μl): 1; average mortality rating (Alfalfa Weevil Larvae [4]; 0.1 μg/μl): 4; insect mortality rating (Boll Weevil): 9 (91-100 percent mortality); insect mortality rating (Confused Flour Beetle; .078125 μg/μl): 9 (91-100 percent mortality); insect mortality rating (Picnic Beetle): 9 (91-100 percent mortality)
mixture of phenyl 2,6-bis(trifluoromethyl)-4-nitro-1-benzimidazolecarboxylate and phenyl 2,5-bis(trifluoromethyl)-1-benzimidazolecarboxylate	7 (71-80)	3	4	4	7	2	2	6	8	0 (0-10)	2 and 3	4 and 2	6 and 8	8 (81-90)	8 (81-90)	6 (61-70)	3 (31-40)	7 (71-80)	7 (71-80)	9 (91-100)	mortality rating (Melon Aphid; 50 ppm): 4 (41-50); mortality rating (House Fly; 250 ppm): 9 (91-100); mortality rating (House Fly; 500 ppm): 9 (91-100); mortality rating (House Fly; 1000 ppm): 9 (91-100); insect mortality rating (Boll Weevil): 9 (91-100 percent mortality); insect mortality rating (Confused Flour Beetle; .15625 μg/μl): 9 (91-100 percent mortality)
